This is an account of results in PMC6154319, “Intestinal Transport Characteristics and Metabolism of C-Glucosyl Dihydrochalcone, Aspalathin” (Molecules : A Journal of Synthetic Chemistry and Natural …, 2017).

For data set [1], the system named is Caco-2 monolayer. Kind of data set: in vitro. Here is the method: Validation of the Caco-2 transport experiments required consideration of three parameters, i.e., firstly, to determine the cytotoxic concentrations of synthetic aspalathin, secondly, the concentration of aspalathin required to ensure HPLC detection in the basolateral compartment, and finally, to assess whether the transport of aspalathin is concentration dependent.
Cells were cultured at 37 °C and 5% CO2 in 95% humidified air in Eagle’s Minimum Essential Medium (EMEM) containing sodium […] pyruvate, supplemented with 2 mM L-glutamine, 1% non-essential amino acids and 10% heat inactivated FBS. Cell cultures were split when 70%–80% confluent, using trypsin/ethylenediaminetetraacetic acid (EDTA). The culture medium, pre-warmed to 37 °C, was refreshed every 2–3 days. Cells were seeded at 1 × 10^4 cells/cm^2 and a sub-cultivation ratio of 1:3 was routinely used. Cells were seeded with the addition of 1% penicillin/streptomycin mixture (10,000 units/mL potassium penicillin and 10,000 µg/mL streptomycin sulphate) at 4 × 10^4 cells/cm^2 onto 0.4 µm polycarbonate 6-well inserts with an insert area of 4.52 cm^2. Cells were used for transport experiments when TEER values across wells were >300 Ω, typically 21–23 days post confluence. Only passages 50–60 were used to prevent phenotypic drift.
The cell monolayers were equilibrated briefly with transport buffer, pH 6.0 (HBSS with 2-(N-morpholino) ethanesulphonic acid (MES)) on the apical side and pH 7.4 (HBSS with HEPES) on the basolateral side, to remove traces of the culture media. Following this, transport buffers were added for 30 min prior to the addition of treatment (inhibitors were added during this step when required, as well as during the subsequent treatment incubation step). After equilibration, the plates containing transport medium were incubated for 30 min at 37 °C at 5% CO2 in 95% humidified air and the TEER value of the monolayer determined. […] For basolateral-to-apical compartment studies, 2.4 mL of treatment at the same concentrations in HBSS (pH 7.4), was added to the basolateral compartment.
To assess whether aspalathin was co-transported with glucose, its transport (100 µM) at both high (20.5 mM) and low (5.5 mM) glucose concentrations, mimicking the intestinal lumen glucose concentrations pre- and post-meals, was monitored. This was followed by experiments performed in the presence and absence of SGLT1 (100 µM phloridzin), GLUT2 (100 µM phloretin) and efflux, PgP (100 µM verapamil) inhibitors.
Samples (1.2 mL) were withdrawn from the basolateral or the apical compartment to measure the concentration of aspalathin uptake and efflux, respectively at 0, 0.5, 1, 1.5, and 2 h under sink conditions (the sample aliquot replaced with equal volume of relevant transport buffer). Sample aliquots (350 µL) were frozen in liquid nitrogen after the addition of ascorbic acid (35 µL of 10% solution) and stored at −65 °C until HPLC analysis. Results were corrected for dilution and expressed as cumulative transport (% of initial dose) as a function of time. Papp (cm/s) for bi-directional transport studies was calculated as previously described. Transport of other major flavonoids in the matrices, i.e., nothofagin, the 3-deoxy analogue of aspalathin and its flavone derivatives, orientin and isoorientin, were also determined.
Lucifer yellow (final concentration 0.1 mM) was used as a membrane integrity marker and co-incubated with the compounds and extracts.
HPLC-DAD analysis of samples from the apical and basolateral compartments was performed in duplicate on an Agilent 1200 system as previously described. Basolateral and apical samples taken after 2 h with pure aspalathin were also analysed using LC-MS (parameters described in [42]) to determine whether aspalathin metabolites were formed in the Caco-2 model.
All experiments were performed in triplicate and the data expressed as mean ± SD, unless otherwise indicated.

Data set [2] can be described thus: Kinetic solubility assay (miniaturised shake flask). The format is physicochemical. To be noted: 2 h, 25 °C, 2% DMSO. As for the experimental part:
The kinetic solubility assay was performed using a miniaturised shake flask method. A 10 mM stock solution of aspalathin was used to prepare calibration standards (10–220 µM) in dimethyl sulphoxide (DMSO), and to spike (1:50) duplicate aqueous samples of phosphate buffered saline (pH 6.5), 0.01 M HCl (pH 2), and FaSSIF (pH 6.5), with a final DMSO concentration of 2%. After shaking for 2 h at 25 °C, the solutions were filtered (multiscreen filter plates, 0.45 µm low-binding, hydrophilic polytetrafluoroethylene (PTFE), Merck) and analysed by means of HPLC-DAD (Agilent 1200 Rapid Resolution HPLC; Agilent Technologies, Inc., Santa Clara, CA, USA). Best fit calibration curves were constructed using the calibration standards, which were used to determine the solubility of the aqueous samples [43].

Consider `O=C(CCc1ccc(O)c(O)c1)c1c(O)cc(O)c([C@@H]2O[C@H](CO)[C@@H](O)[C@H](O)[C@H]2O)c1O` [Aspalathin], for which, in data set [1] (Caco-2), the “Papp a-b with high glucose” value is given as 2.90 ± 0.75 × 10^−7 cm/s, the “Papp a-b − Inhibitor” value is listed as 1.73 ± 0.97 ×10^−6 cm/s, the Papp b-a is 2.15 ± 0.23 × 10^—6 cm/s and the “Papp b-a − Inhibitor” value is on record as 2.09 ± 0.23 ×10^−6 cm/s. The “Papp (cm/s) a-b × 10^−6” value in data set [1] (buffered solution of synthetic aspalathin, 1 µM) is 2.28 ± 0.09 cm/s × 10^−6. Moreover, the “Papp (cm/s) a-b × 10^−6” value in data set [1] (from aspalathin-enriched green rooibos extract SB1, 0.38 mg/mL (153, 11, 17, 9 µM aspalathin, nothofagin, isoorientin, orientin)) stood at 2.00 ± 1.10 cm/s × 10^−6. Besides, in data set [1] (from semi-purified fraction PEF1, 0.15 mg/mL (149, 21, 12, 8 µM aspalathin, nothofagin, isoorientin, orientin)), the “Papp (cm/s) a-b × 10^−6” value amounted to 2.11 ± 0.20 cm/s × 10^−6. The “Kinetic solubility at pH 2” value in data set [2] (0.01 M HCl (pH 2)) stood at 153 µM. In data set [2] (FaSSIF (pH 6.5)), the “Kinetic solubility in FaSSIF at pH 6.5” value was 119 µM. The “Kinetic solubility at pH 6.5” value in data set [2] (phosphate buffered saline (pH 6.5)) was 123 µM.
